What follows are compounds tested on Aedes aegypti (assay: Warm Body assay, mosquito landings on the baited warm body). Settings: Aedes aegypti, γ-lactones, 0.016 mg/mL in ethanol; read-out: Percentage of repellence of mosquitoes landing on the warm body.
Format: in vivo
Experimental: The controlling effect according to the present invention was assessed using an adapted Warm Body assay as defined in Kröber T, Kessler S, Frei J, Bourquin M, Guerin P M. 2010. J Am Mosq Control Assoc. 26:381-386. In this in-vitro assay the number of mosquito landing on a warm body, simulating an attractive host treated with the tested stimuli, was measured in order to assess the repellence effect.
The published protocol has been adapted as the switch from Anopheles gambiae to Ae. aegypti led to a decrease of mosquitoes placed in the tested cage due to the size difference (i.e. 30 mosquitoes instead of 50) and to an increase of lighting since Ae. aegypti is a diurnal mosquitoes (i.e. 150 lux instead of 4 lux).
On the sandblasted glass Petri dish covering the warm body (28.3 cm^2), 100 μL of the compounds diluted at different concentrations in ethanol was applied. The number of mosquito landing on the warm body was counted for each stimulus. Number of landings on pure ethanol (solvent) control treatment was used to normalize the data and calculate the percentage of repellence.
Compound `CCCCCCCCCCC1CCC(=O)O1` (stereo not drawn) [5-decyloxolan-2-one] has a pest or weed control at 16 µg/mL of 2%. For `CCC1CCC(=O)O1` (stereo not drawn) [5-ethyloxolan-2-one], the pest or weed control at 16 µg/mL was 0%. Work on `CCCCCCCC1CCC(=O)O1` (stereo not drawn) [5-heptyloxolan-2-one] yielded a pest or weed control at 16 µg/mL of 15%. `CCCCC=CC1CCC(=O)O1` (stereo not drawn) [5-hex-1-enyloxolan-2-one] showed a pest or weed control at 16 µg/mL of 46%. `CCC=CCCC1(C)CCC(=O)O1` (stereo not drawn) [5-hex-3-enyl-5-methyloxolan-2-one] showed a pest or weed control at 16 µg/mL of 39%. `CCCCCCC1CCC(=O)O1` (stereo not drawn) [5-hexyloxolan-2-one] showed a pest or weed control at 16 µg/mL of 0%. For `CC1CCC(=O)O1` (stereo not drawn) [5-methyloxolan-2-one], the pest or weed control at 16 µg/mL was 0%. With `CCCCCCC=CC1CCC(=O)O1` (stereo not drawn) [5-oct-1-enyloxolan-2-one] the pest or weed control at 16 µg/mL was 0%. For `CCCCCC=CCC1CCC(=O)O1` (stereo not drawn) [5-oct-2-enyloxolan-2-one], the pest or weed control at 16 µg/mL was 85%. `CCCCC=CCCC1CCC(=O)O1` (stereo not drawn) [5-oct-3-enyloxolan-2-one] gave a pest or weed control at 16 µg/mL of 31%. `CC=CCCCCCC1CCC(=O)O1` (stereo not drawn) [5-oct-6-enyloxolan-2-one] showed a pest or weed control at 16 µg/mL of 12%. `C=CCCCCCCC1CCC(=O)O1` (stereo not drawn) [5-oct-7-enyloxolan-2-one] showed a pest or weed control at 16 µg/mL of 46%. With `CCCCCCCCC1CCC(=O)O1` (stereo not drawn) [5-octyloxolan-2-one] the pest or weed control at 16 µg/mL was 12%. For `CCCC=CC1CCC(=O)O1` (stereo not drawn) [5-pent-1-enyloxolan-2-one], the pest or weed control at 16 µg/mL was 52%. `CC=CCCC1CCC(=O)O1` (stereo not drawn) [5-pent-3-enyloxolan-2-one] was tested, and the pest or weed control at 16 µg/mL was 0%. Compound `CCCCCC1CCC(=O)O1` (stereo not drawn) [5-pentyloxolan-2-one] has a pest or weed control at 16 µg/mL of 9%. `CCCC1CCC(=O)O1` (stereo not drawn) [5-propyloxolan-2-one] was tested, and the pest or weed control at 16 µg/mL was 28%.

Same assay, conditions: Aedes aegypti, γ-lactones, 0.4 mg/mL in ethanol; read-out: Percentage of repellence of mosquitoes landing on the warm body
`CCCCCCCCCCC1CCC(=O)O1` (stereo not drawn) [5-decyloxolan-2-one] showed a pest or weed control at 400 µg/mL of 14%. Compound `CCC1CCC(=O)O1` (stereo not drawn) [5-ethyloxolan-2-one] has a pest or weed control at 400 µg/mL of 16%. `CCCCCCCC1CCC(=O)O1` (stereo not drawn) [5-heptyloxolan-2-one] was tested, and the pest or weed control at 400 µg/mL was 28%. `CCCCC=CC1CCC(=O)O1` (stereo not drawn) [5-hex-1-enyloxolan-2-one] was tested, and the pest or weed control at 400 µg/mL was 87%. In the case of `CCC=CCCC1(C)CCC(=O)O1` (stereo not drawn) [5-hex-3-enyl-5-methyloxolan-2-one], the pest or weed control at 400 µg/mL is reported as 79%. For `CCCCCCC1CCC(=O)O1` (stereo not drawn) [5-hexyloxolan-2-one], the pest or weed control at 400 µg/mL was 69%. `CC1CCC(=O)O1` (stereo not drawn) [5-methyloxolan-2-one] was tested, and the pest or weed control at 400 µg/mL was 43%. `CCCCCCC=CC1CCC(=O)O1` (stereo not drawn) [5-oct-1-enyloxolan-2-one] gave a pest or weed control at 400 µg/mL of 60%. Work on `CCCCCC=CCC1CCC(=O)O1` (stereo not drawn) [5-oct-2-enyloxolan-2-one] yielded a pest or weed control at 400 µg/mL of 100%. For `CCCCC=CCCC1CCC(=O)O1` (stereo not drawn) [5-oct-3-enyloxolan-2-one], the pest or weed control at 400 µg/mL was 76%. `CC=CCCCCCC1CCC(=O)O1` (stereo not drawn) [5-oct-6-enyloxolan-2-one] gave a pest or weed control at 400 µg/mL of 78%. In the case of `C=CCCCCCCC1CCC(=O)O1` (stereo not drawn) [5-oct-7-enyloxolan-2-one], the pest or weed control at 400 µg/mL is reported as 69%. `CCCCCCCCC1CCC(=O)O1` (stereo not drawn) [5-octyloxolan-2-one] gave a pest or weed control at 400 µg/mL of 52%. `CCCC=CC1CCC(=O)O1` (stereo not drawn) [5-pent-1-enyloxolan-2-one] gave a pest or weed control at 400 µg/mL of 79%. Compound `CC=CCCC1CCC(=O)O1` (stereo not drawn) [5-pent-3-enyloxolan-2-one] has a pest or weed control at 400 µg/mL of 95%. `CCCCCC1CCC(=O)O1` (stereo not drawn) [5-pentyloxolan-2-one] was tested, and the pest or weed control at 400 µg/mL was 56%. For `CCCC1CCC(=O)O1` (stereo not drawn) [5-propyloxolan-2-one], the pest or weed control at 400 µg/mL was 50%.

Same assay, conditions: Aedes aegypti, γ-lactones, 10 mg/mL in ethanol; read-out: Percentage of repellence of mosquitoes landing on the warm body
With `CCCCCCCCCCC1CCC(=O)O1` (stereo not drawn) [5-decyloxolan-2-one] the pest or weed control at 10000 µg/mL was 60%. Work on `CCC1CCC(=O)O1` (stereo not drawn) [5-ethyloxolan-2-one] yielded a pest or weed control at 10000 µg/mL of 74%. For `CCCCCCCC1CCC(=O)O1` (stereo not drawn) [5-heptyloxolan-2-one], the pest or weed control at 10000 µg/mL was 70%. For `CCCCC=CC1CCC(=O)O1` (stereo not drawn) [5-hex-1-enyloxolan-2-one], the pest or weed control at 10000 µg/mL was 95%. Work on `CCC=CCCC1(C)CCC(=O)O1` (stereo not drawn) [5-hex-3-enyl-5-methyloxolan-2-one] yielded a pest or weed control at 10000 µg/mL of 96%. `CCCCCCC1CCC(=O)O1` (stereo not drawn) [5-hexyloxolan-2-one] was tested, and the pest or weed control at 10000 µg/mL was 92%. In the case of `CC1CCC(=O)O1` (stereo not drawn) [5-methyloxolan-2-one], the pest or weed control at 10000 µg/mL is reported as 2%. In the case of `CCCCCCC=CC1CCC(=O)O1` (stereo not drawn) [5-oct-1-enyloxolan-2-one], the pest or weed control at 10000 µg/mL is reported as 98%. Compound `CCCCCC=CCC1CCC(=O)O1` (stereo not drawn) [5-oct-2-enyloxolan-2-one] has a pest or weed control at 10000 µg/mL of 96%. Work on `CCCCC=CCCC1CCC(=O)O1` (stereo not drawn) [5-oct-3-enyloxolan-2-one] yielded a pest or weed control at 10000 µg/mL of 92%. With `CC=CCCCCCC1CCC(=O)O1` (stereo not drawn) [5-oct-6-enyloxolan-2-one] the pest or weed control at 10000 µg/mL was 100%. `C=CCCCCCCC1CCC(=O)O1` (stereo not drawn) [5-oct-7-enyloxolan-2-one] gave a pest or weed control at 10000 µg/mL of 80%. Compound `CCCCCCCCC1CCC(=O)O1` (stereo not drawn) [5-octyloxolan-2-one] has a pest or weed control at 10000 µg/mL of 45%. With `CCCC=CC1CCC(=O)O1` (stereo not drawn) [5-pent-1-enyloxolan-2-one] the pest or weed control at 10000 µg/mL was 100%. Work on `CC=CCCC1CCC(=O)O1` (stereo not drawn) [5-pent-3-enyloxolan-2-one] yielded a pest or weed control at 10000 µg/mL of 100%. Compound `CCCCCC1CCC(=O)O1` (stereo not drawn) [5-pentyloxolan-2-one] has a pest or weed control at 10000 µg/mL of 99%. `CCCC1CCC(=O)O1` (stereo not drawn) [5-propyloxolan-2-one] gave a pest or weed control at 10000 µg/mL of 100%.

Same assay, conditions: Aedes aegypti, δ-lactones, 0.016 mg/mL; read-out: Percentage of repellence of mosquitoes landing on the warm body
`CCC#CCCC1CCCC(=O)O1` (stereo not drawn) [6-hex-3-ynyloxan-2-one] showed a pest or weed control at 16 µg/mL of 0%. `CCCCCCC1CCCC(=O)O1` (stereo not drawn) [6-hexyloxan-2-one] showed a pest or weed control at 16 µg/mL of 0%. In the case of `CCCCCC1CCCC(=O)O1` (stereo not drawn) [6-pentyloxan-2-one], the pest or weed control at 16 µg/mL is reported as 0%.

Same assay, conditions: Aedes aegypti, δ-lactones, 0.4 mg/mL; read-out: Percentage of repellence of mosquitoes landing on the warm body
For `CCC#CCCC1CCCC(=O)O1` (stereo not drawn) [6-hex-3-ynyloxan-2-one], the pest or weed control at 400 µg/mL was 80%. In the case of `CCCCCCC1CCCC(=O)O1` (stereo not drawn) [6-hexyloxan-2-one], the pest or weed control at 400 µg/mL is reported as 76%. In the case of `CCCCCC1CCCC(=O)O1` (stereo not drawn) [6-pentyloxan-2-one], the pest or weed control at 400 µg/mL is reported as 91%.

Same assay, conditions: Aedes aegypti, δ-lactones, 10 mg/mL; read-out: Percentage of repellence of mosquitoes landing on the warm body
Work on `CCC#CCCC1CCCC(=O)O1` (stereo not drawn) [6-hex-3-ynyloxan-2-one] yielded a pest or weed control at 10000 µg/mL of 97%. For `CCCCCCC1CCCC(=O)O1` (stereo not drawn) [6-hexyloxan-2-one], the pest or weed control at 10000 µg/mL was 91%. Compound `CCCCCC1CCCC(=O)O1` (stereo not drawn) [6-pentyloxan-2-one] has a pest or weed control at 10000 µg/mL of 98%.

Source: patent publication US20260231939A1, “ARTHROPOD CONTROL COMPOSITIONS” (Firmenich SA, priority 2022, published 2026)
